Measured values taken from patent US5739359A, “Methods for preparing 1-deoxy paclitaxels” (Virginia Tech Intellectual Properties, Inc., priority 1997, dated 1998).

Columns and labels:
[1] = system: paclitaxel-resistant cell line HCT116/VM46; assay: cells; assay type: cell-based; settings: Homo sapiens, HCT-116/VM46, 72 h, read-out: Cytotoxicity Assay IC50
Experimental: Cytotoxicity was assessed in HCT-116 and line HCT116/VM46 human colon carcinoma cells by MTS (3-(4,5-dimethylthiazol-2-yl)-5-(3-carboxymethoxyphenyl)-2-(4-sulphenyl)-2H-tetrazolium, inner salt) assay as reported in T. L. Riss, el. al., "Comparison of MTT, XTT, and a novel tetrazolium compound MTS for in vitro proliferation and chemosensitivity assays.," Mol. Biol. Cell 3 (Suppl.):184a, 1992. Cells were plated at 4,000 cell/well in 96 well microliter plates and 24 hours later drugs were added and serial diluted. The cells were incubated at 37° for 72 hours at which time the tetrazolium dye, MTS at 333 μg/ml (final concentration), in combination with the electron coupling agent phenazine methosulfate at 25 μM (final concentration) was added. A dehydrogenase enzyme in live cells reduces the MTS to a form that absorbs light at […] which can be quantitated spectrophotometrically. The greater the absorbance the greater the number of live cells. The results are expressed as an IC50, which is the drug concentration required to inhibit cell proliferation (i.e. absorbance at 450 nm) to 50% of that of untreated control cells. The IC50 values for compounds evaluated in this assay are evaluated in Table I.

[2] = system: human colon carcinoma cells HCT-116; assay: MTS in vitro cytotoxicity assay, HCT-116; assay type: cell-based; settings: 72 h exposure
Experimental: Cells were plated at 4,000 cell/well in 96 well microliter plates and 24 hours later drugs were added and serial diluted. […] The greater the absorbance the greater the number of live cells.

[3] = in vivo animal models; cited from earlier work

CC(=O)O[C@@]12CO[C@@H]1C[C@@H]1OC(c3ccccc3)O[C@H]3[C@H](O)C4=C(C)[C@@H](OC(=O)[C@H](O)[C@@H](NC(=O)OC(C)(C)C)c5ccccc5)C[C@@H]([C@@H](OC(=O)c5ccccc5)[C@H]2[C@@]13C)C4(C)C (stereo partly drawn) [Compound 7b, 1-deoxy-9(R)-dihydrodocetaxel 7,9-benzylidene acetal]
IC50 [1]: 0.0296 nM
IC50 [2]: 0.0105 nM

CC(=O)O[C@@H]1C2=C(C)[C@@H](OC(=O)[C@H](O)[C@@H](NC(=O)OC(C)(C)C)c3ccccc3)C[C@@H]([C@@H](OC(=O)c3ccccc3)[C@@H]3[C@]4(OC(C)=O)CO[C@@H]4C[C@H](OC(C)=O)[C@@]3(C)[C@H]1OC(C)=O)C2(C)C [Compound 7c, 7,9,10-triacetyl-1-deoxy-9(R)-dihydrodocetaxel]
IC50 [1]: 0.0218 nM

CC(=O)O[C@H]1C(=O)[C@@]2(C)[C@H]([C@H](OC(=O)c3ccccc3)[C@]3(O)C[C@H](OC(=O)[C@H](O)[C@@H](NC(=O)c4ccccc4)c4ccccc4)C(C)=C1C3(C)C)[C@]1(OC(C)=O)CO[C@@H]1C[C@@H]2O [paclitaxel]
antitumor activity (in words) [3]: excellent antitumor activity
IC50 [1]: 0.225 nM

CC(=O)O[C@@]12CO[C@@H]1C[C@@H]1OC(C)(C)O[C@H]3[C@H](O)C4=C(C)[C@@H](OC(=O)[C@H](O)[C@@H](NC(=O)c5ccccc5)c5ccccc5)C[C@@H]([C@@H](OC(=O)c5ccccc5)[C@H]2[C@@]13C)C4(C)C [Compound 7a, 10-Deacetyl-1-deoxy-9(R)-dihydropaclitaxel 7,9-acetonide]
IC50 [1]: 0.0115 nM
